The nature of series [1]: Pharmacokinetic profile after intravenous and oral administration. The series is classed as in vivo. The settings on record: male, rat, plasma; for bioavailability: po; for half-life: read-out: t½ (converted). How it is done:
The pharmacokinetic profile of the compounds of formula (I) was evaluated in male mice or rats after intravenous and oral administration. The pharmacokinetic analysis was performed using plasmatic concentrations of the compounds at different times. The data were evaluated by Kinetica 2000™, Version 3.0 Software [InnaPhase Corporation, World headquarters, 1700 Race Street, Philadelphia, Pa. 19103 USA]. The pharmacokinetic parameters were calculated according the following formulas: Kel=elimination rate constant; t1/2=In2/Kel, AUC=AUC0n+AUCextra, where AUC0n=AUC from t=0 to t last (Trapezoidal Method) and AUCextra=extrapolated AUC=Clast/Kel; Clearance=D/AUC; Vd=Cl/Kel; Oral bioavailability F=(AUCp.o./AUCi.v.)*(Di.v./Dp.o.)*100.

A short description of series [2]: Protein binding in rat plasma (ultrafiltration). It counts as in vitro ADME. The note with it: 37° C. How it is done:
(§1) Protein Binding was determined as follows: Duplicate rat plasma samples of each compound at 50 μg/mL concentration were incubated at 37° C. for 20 minutes under gentle shaking. Then samples were ultrafiltrated through Centrifree® micropartition devices by centrifugation at 1500 g for 15 minutes. The ultrafiltrate was subjected to HPLC-MS/MS quantitative analysis (Column Luna C18, 150×2 mm ID 5 μm (Phenomenex), mobile phase: eluent A) 0.02M HCOO—NH4+ (pH 4.3 with HCOOH); eluent B) CH3OH).

The subject of series [3] is GRO-α induced chemotaxis of polymorphonucleate leukocytes (PMNs). The experiment in a line: GRO-α induced chemotaxis of human PMNs. The settings on record: Leukocyte; for inhibition at 0.01 µM: 10^−8 M. It counts as cell-based. How it is done: (§2) The compounds of the invention of formula (I) were evaluated in vitro for their ability to inhibit chemotaxis of polymorphonucleate leukocytes (hereinafter referred to as PMNs) and monocytes induced by the fractions of CXCL8 and GRO-α and C5a and compared to the corresponding non fluorinated parent compounds. For this purpose, in order to isolate the PMNs from heparinized human blood, taken from healthy adult volunteers, mononucleates were removed by means of sedimentation on dextran (according to the procedure disclosed by W. J. Ming et al., J. Immunol., 138, 1469, 1987) and red blood cells by a hypotonic solution. The cell vitality was calculated by exclusion with Trypan blue, whilst the ratio of the circulating polymorphonucleates was estimated on the cytocentrifugate after staining with Diff Quick.
GRO-α induced chemotaxis inhibition was evaluated in an analogous assay.
(§3) In the chemotaxis experiments, the PMNs were incubated with the compounds of the invention of formula (I) for 15′ at 37° C. in an atmosphere containing 5% CO2.
(§4) During the chemotaxis assay (W. Falket et al., J. Immunol. Methods, 33, 239, 1980) PVP-free filters with a porosity of 5 μm and microchambers suitable for replication were used.
(§5) The compounds of the invention in formula (I) were evaluated at a concentration ranging between 10^−6 and 10^−10 M; for this purpose they were added, at the same concentration, both to the lower pores and the upper pores of the microchamber. Evaluation of the ability of the compounds of the invention of formula (I) to inhibit the chemotaxis of human monocytes was carried out according to the method disclosed (Van Damme J. et al., Eur. J. Immunol., 19, 2367, 1989).

Series [4] concerns CXCL8 induced chemotaxis of polymorphonucleate leukocytes (PMNs). The experiment in a line: CXCL8 induced chemotaxis of human PMNs. The series is classed as cell-based. The settings on record: Leukocyte; for inhibition at 0.001 µM: 10^−9 M. How it is done: as §2
In the CXCL8 induced chemotaxis assay human recombinant CXCL8 (Pepro Tech) was used as stimulating agents in the chemotaxis experiments: the lyophilized protein was dissolved in a volume of HBSS containing 0.2% bovin serum albumin (BSA) so thus to obtain a stock solution having a concentration of 10^−5 M to be diluted in HBSS to a concentration of 10^−9 M, for the chemotaxis assays.
as §3, §4, §5

In series [5] the test system is C5a induced chemotaxis of polymorphonucleate leukocytes (PMNs). The experiment in a line: C5a induced chemotaxis of human PMNs. The series is classed as cell-based. The settings on record: Leukocyte, 10^−8 M, Table 2. How it is done:
as §2
In the C5a induced chemotaxis assay the fractions hr-C5a and hrC5a-desArg (Sigma) were used as stimulating agents in chemotaxis experiments, obtaining practically identical results. Lyophilized C5a was dissolved in a volume of HBSS containing 0.2% BSA so as to obtain a stock solution having a concentration of 10^−5 M, to be diluted in HBSS to a concentration of 10^−9 M, for the chemotaxis assays.
as §3
The chemotactic activity of the C5a was evaluated on human circulating polymorphonucleates (PMNs) resuspended in HBSS at a concentration of 1.5×10^6 PMNs per nil.
as §4, §5

Series [6] can be described thus: Protein binding, experiments performed in mouse. It counts as in vitro ADME. The settings on record: plasma; values marked *: experiments performed in mouse. How it is done:
as §1

Where [7] appears, read: values marked *: 10^−7 M, Table 1, read-out: GRO-α (% of inhibition at 10^−7 M).
[8] abbreviates: Table 1, read-out: CXCL8 (% inhibition at 10^−9 M).

Each structure is given as a SMILES string. Where a name gives a salt, the structure may show the parent alone. Read-outs that look alike come from different tables or passages of the source.

As a reminder, the bioavailability is the share of a dose that reaches the circulation, judged against a reference dose that is usually intravenous. Higher therefore signals good availability. The term fraction unbound denotes the share of the substance not bound to proteins or other matrix. High values mean much free substance, low ones little free substance. Take `C[C@@H](C(N)=O)c1ccc(OS(=O)(=O)C(F)(F)F)cc1`: in series [1], the Vd stood at 0.55 L/kg, the clearance was 3.67 mL/min/kg, the bioavailability is 72% and the half-life was 1.9 h. For the same compound, the fraction unbound at 20 min, 50 μg/mL in series [2] was 0.06.
On to `CC(O)(C(N)=O)c1ccc(OS(=O)(=O)C(F)(F)F)cc1` (centres unmarked), for which, in series [1], the Vd was determined as 1.33 L/kg, the clearance is 0.65 mL/min/kg, the bioavailability amounted to 85% and the half-life is 25 h. Besides, the unbound share (fraction unbound) at 20 min, 50 μg/mL in series [2] is 0.2.
Broadly, the melting point is the temperature of the solid-liquid transition. For `CC(F)(C(N)=O)c1ccc(OS(=O)(=O)C(F)(F)F)cc1` (centres unmarked) (as salt: methanesulfonate) [Compound 8, 4-(2-amino-1-fluoro-1-methyl-2-oxoethyl)phenyl trifluoromethanesulfonate], the melting point was in the range of 85 to 87 °C.
By inhibition is commonly meant the share of the control response that was lost under treatment. Take `CC(F)(C(=O)O)c1ccc(OS(=O)(=O)C(F)(F)F)cc1` (centres unmarked) [Compound 1, 2-Fluoro-2-(4-{[(trifluoromethyl)sulfonyl]oxy}phenyl) propanoic acid]: the inhibition at 0.1 µM in series [3] (setting [7]) turned out to be 47 ± 10%.
Compound `C[C@@](F)(C(=O)O)c1ccc(OS(=O)(=O)C(F)(F)F)cc1` [Compound 2, (2S)-2-fluoro-2-(4-{[(trifluoromethyl)sulfonyl]oxy}phenyl)propanoic acid] had a melting point of 91 to 94 °C. Moreover, in series [3] (setting [7]), the inhibition at 0.1 µM turned out to be 43 ± 15%.
In the same order, the values of `C[C@](F)(C(=O)O)c1ccc(OS(=O)(=O)C(F)(F)F)cc1` [Compound 3, (2R)-2-fluoro-2-(4-{[(trifluoromethyl)sulfonyl]oxy}phenyl)propanoic acid] are 90 to 94 °C and 49 ± 6%.
Compound `C[C@@](F)(C(=O)NO)c1ccc(OS(=O)(=O)C(F)(F)F)cc1` [Compound 4, 4-[(1S)-1-fluoro-2-(hydroxyamino)-1-methyl-2-oxoethyl}phenyl trifluoromethanesulfonate] showed an inhibition at 0.01 µM in series [3] (Table 1) of 55 ± 10%.
The same measure, in the same setting: for `CN(O)C(=O)[C@@](C)(F)c1ccc(OS(=O)(=O)C(F)(F)F)cc1` [Compound 5, 4-[(1S)-1-fluoro-2-[hydroxyl(methyl)amino]-1-methyl-2-oxoethyl}phenyl trifluoromethane sulfonate] the value was 40 ± 8%; for `CC(F)(C(=O)O)c1cccc(C(=O)c2ccccc2)c1` (centres unmarked) [Compound 6, 2-(3-benzoylphenyl)-2-fluoropropanoic acid], 42 ± 4%.
In the case of `CC(F)(C(=O)O)c1cccc(Nc2nc(C(F)(F)F)cs2)c1` (centres unmarked) [Compound 7], the inhibition at 0.001 µM in series [4] (setting [8]) was determined as 21 ± 6%. The inhibition at 0.01 µM in series [3] (Table 1) worked out at 60 ± 10%.
In the same order, the values of `CC(F)(C(N)=O)c1ccc(OS(=O)(=O)C(F)(F)F)cc1` (centres unmarked) [Compound 8, 4-(2-amino-1-fluoro-1-methyl-2-oxoethyl)phenyl trifluoromethanesulfonate] are 50 ± 9% and 57 ± 12%.
`C[C@](F)(C(N)=O)c1ccc(OS(=O)(=O)C(F)(F)F)cc1` [Compound 9, 4-[(1R)-2-amino-1-fluoro-1-methyl-2-oxoethyl)phenyl trifluoromethanesulfonate]: the inhibition at 0.01 µM in series [3] (Table 1) is 53 ± 9%.
Consider `C[C@@](F)(C(N)=O)c1ccc(OS(=O)(=O)C(F)(F)F)cc1` [Compound 10, 4-[(1S)-2-amino-1-fluoro-1-methyl-2-oxoethyl)phenyl trifluoromethanesulfonate], for which the inhibition at 0.001 µM in series [4] (setting [8]) stood at 50 ± 6%. The compound also gave an inhibition at 0.01 µM in series [3] (Table 1) of 10 ± 12%.
With `CONC(=O)C(C)(F)c1ccc(OS(=O)(=O)C(F)(F)F)cc1` (centres unmarked) [Compound 11, 4-[1-fluoro-2-(methoxyamino)-1-methyl-2-oxoethyl]phenyl trifluoromethanesulfonate], the inhibition at 0.1 µM in series [4] (values marked *: 10^−7 M, Table 1, read-out: CXCL8 (% of inhibition at 10^−7 M)) was 40 ± 10%. Besides, at 0.01 µM the inhibition in series [3] (Table 1) was 7 ± 8%.
In the case of `CC(C)NC(=O)C(C)(F)c1ccc(OS(=O)(=O)C(F)(F)F)cc1` (centres unmarked) [Compound 12, 4-[1-fluoro-2-(isopropylamino)-1-methyl-2-oxoethyl]phenyl trifluoromethanesulfonate], in series [3] (setting [7]), the inhibition at 0.1 µM worked out at 45 ± 8%.
In the case of `CC(F)(C(N)=O)c1cccc(C(=O)c2ccccc2)c1` (centres unmarked) [Compound 13, 2-(3-benzoylphenyl)-2-fluoropropanamide], the inhibition at 0.1 µM in series [4] (marked *, no footnote in Table 2 (Table 1: * = 10^−7 M), read-out: CSCL8 (% inhibition), value marked *) is 52 ± 8%; in series [3] (marked *, no footnote in Table 2 (Table 1: * = 10^−7 M), read-out: GRO-α (% inhibition), value marked *), 50 ± 12%. The same compound displayed an inhibition at 0.01 µM in series [5] of 47 ± 9%.
As to `CC(F)(C(N)=O)c1cccc(Nc2nc(C(F)(F)F)cs2)c1` (centres unmarked) [Compound 14, 2-fluoro-2-(3-{[4-(trifluoromethyl)-1,3-thiazol-2-yl]amino}phenyl)propanamide], the inhibition at 0.001 µM in series [4] (Table 2, read-out: CSCL8 (% inhibition at 10^−9 M)) stood at 36 ± 12%. For the same compound, the inhibition at 0.01 µM in series [3] (Table 2) is 55 ± 7%; in series [5], 33 ± 5%.
Take `C[C@H](NC(=O)[C@](C)(F)c1ccc(OS(=O)(=O)C(F)(F)F)cc1)C(=O)O` [Compound 15, (2S)-2-{[(2R)-2-fluoro-2-(4-{[(trifluoromethyl)sulfonyl]oxy}phenyl)propanoyl]amino}propanoic acid]: in series [4] (setting [8]), the inhibition at 0.001 µM is 55 ± 8%.
Consider `C[C@H](NC(=O)C(C)(F)c1cccc(Nc2nc(C(F)(F)F)cs2)c1)C(=O)O` (stereo partly drawn) [Compound 16, (2S)-2-{[2-fluoro-2-(3-{[4-(trifluoromethyl)-1,3-thiazol-2-yl]amino}phenyl)propanoyl]amino}propanoic acid], for which the inhibition at 0.001 µM in series [4] (setting [8]) came to 50 ± 12%.
For the compound `C[C@](F)(C(=O)NS(C)(=O)=O)c1ccc(OS(=O)(=O)C(F)(F)F)cc1` [Compound 17, 4-{(1R)-1-fluoro-1-methyl-2-[(methylsulfonyl)amino]-2-oxoethyl}phenyl trifluoromethanesulfonate], the inhibition at 0.01 µM in series [3] (Table 1) is 57 ± 14%.
In series [5], `C[C@@](F)(C(=O)NCCCN1CCCC1)c1ccc(OS(=O)(=O)C(F)(F)F)cc1` [Compound 18] returned an inhibition at 0.01 µM of 53 ± 5%.
The same measure, in the same setting: for `C[C@](F)(C(=O)NC[C@H]1CCCN1)c1ccc(OS(=O)(=O)C(F)(F)F)cc1` [Compound 19, 4-((1R)-1-fluoro-1-methyl-2-oxo-2-{[(2R)-pyrrolidin-2-ylmethyl]amino}ethyl)phenyl trifluoromethanesulfonate] the value was 45 ± 4%.
In the case of `C[C@](F)(C(N)=O)c1ccc(OS(=O)(=O)C(F)(F)F)cc1` [drawing 24], in series [1], the Vd was determined as 0.631 L/kg, the clearance was 0.53 mL/min/kg, the bioavailability came to 46.8% and the half-life is 13.8 h. In series [6], this compound showed a fraction unbound at 20 min, 50 μg/mL of 0.05.
In the same order, the values of `C[C@@](F)(C(N)=O)c1ccc(OS(=O)(=O)C(F)(F)F)cc1` [drawing 25] are 1.47 L/kg, 2.28 mL/min/kg, 84.2%, 9.1 h and 0.08.

The values are drawn from patent publication US8440711B2, “2-aryl-2-fluoropropanoic acids and derivatives and pharmaceutical compositions containing them” (Dompe Pha.r.ma S.p.A., priority 2006, dated 2013).
